Assay results: patent US12440493B2, “Combination therapy for treating cancer comprising substituted piperazines” (Eli Lilly and Company, priority 2020, dated 2025)
Several values for one entry are separate records, joined by “and”; a condition that tells them apart may be missing. Equal entries are not always repeated.

Tested on: IDH1(R132H) primary human AML cells
Assay: AML clearance in peripheral blood (flow cytometry, % hCD33+hCD45+ of total white cells), human AML PDx models in NSG mice
Type: in vivo
Conditions: for AML clearance (% hCD33 + hCD45+ (of total white cells)): QD, PO, each value one animal
Description: Compounds and Formulation. For in vivo studies, each test article is prepared at an appropriate concentration with vehicle. […] Compound A is prepared fresh at the appropriate concentrations with vehicle every 7 days and stored at 4° C. between doses. […] Cytarabine is prepared fresh weekly by dilution with sterile saline from stock solution of Cytarabine (injection 20 mg/mL, (Pfizer injectables')). Azacitidine (Sigma, Lot #MKBR7212) is formulated in sterile water and is prepared fresh daily immediately before dosing. In vivo human AML PDx models. […] Two models are used in the studies: […] As needed, splenocytes from tumor-bearing mice are used to propagate and expand the models, as described. Each test article is prepared as described above at an appropriate concentration with vehicle to give animals the doses tested in this study at a dosing volume of 10 μL/gram body weight. Mice receiving Compound A (PO, QD) are treated at the indicated doses for the duration of the study. The combination agents are dosed as follows: […] Treated mice are assessed in comparison to vehicle treated and naïve (non-tumor bearing) control mice. Body weight is recorded twice per week. […] AML PDx model propagation. […] Spleens are processed and splenocytes isolated as described below. Two hundred μL per subject of the splenocyte prep is injected IV (intravenous, tail vein) into recipient NSG mice. […] Once engraftment is confirmed, the mice are monitored biweekly until ready to be put on study. […] Submandibular blood is collected. Spleen/Splenocyte Processing and Prep. After excision, a spleen is weighed, and […] is placed in a standard sterile 15 mL polypropylene conical tube containing PBS, and placed on ice. […] The spleen is placed in ice cold sterile PBS in a 15 mL collection tube. The spleen is removed from the collection tube and placed in a 100 micron 50 mL conical tube cell strainer (BD Falcon #352360). The spleen is processed by gentle rubbing of the spleen tissue against the surface of the cell strainer with the end of a 5 mL syringe plunger in a circular motion. The surface of the strainer is rinsed with 10 mL room temperature sterile DPBS (HyClone SH30028) 3 times during the process. […] The cell pellet is collected by centrifugation (300×g) and washed three times with 30 mL sterile DPBS. The cells are counted and resuspended in DPBS at the desired implant concentration. Bone Marrow Collection. […] Flow cytometry analysis of human white cells. Submandibular blood samples from in vivo studies are collected. Fluor-conjugated antibody stains are added according to the manufacturer's instructions (anti-human CD33-PE (clone WM53, BD Cat #555450), anti-human CD14-APC (clone MφpP9, BD Cat #340436), anti-human CD15-V450 (clone HI98, BD Cat #561584), anti-human CD117-BV421 (clone YB5.B8, BD Cat #562434), anti-human […]7 (clone ICRF44, BD Cat #557754), anti-human […]7 (clone HI30, BD Cat #557748), and anti-human CD3-FITC (clone SK7, BD Cat #340542)). The samples are incubated for 30 minutes at room temperature, protected from light. After the incubation, 1.5 mL 1×BD Lyse/Fix (37° C., (BD #558049)) is added to each sample and incubated for 12 minutes at room temperature. The tubes are centrifuged at 300×g for 7 minutes. BD Lyse/Fix solution is aspirated and the cell pellet washed with stain/wash buffer 3 times (1 wash step consisted of: pellet resuspended in 3 mL stain/wash buffer, centrifuged at 300×g, aspirated wash). Fixed cells are then resuspended in 300 to 400 μL stain/wash buffer. Samples are analyzed on a Becton Dickinson FACSVerse Flow cytometer (Cat #651155 Serial #Z6511550447) using standard flow cytometry principles and techniques. Samples are analyzed on the same day as they are stained and fixed. Population gating and data analysis of percent population are performed in the FACSuite software on the FACSVerse cytometer. Percent population values from the data analysis are plotted in Graphpad Prism or in JMP13. […]

## C=CC(=O)N1CCN([C@@H](CC2CC2)c2ccc([C@H](C)Nc3ncc4c(n3)N(CC)C(=O)OC4)cc2)CC1 [Compound A, 7-[[(1S)-1-[4-[(1S)-2-cyclopropyl-1-(4-prop-2-enoylpiperazin-1-yl)ethyl]phenyl]ethyl]amino]-1-ethyl-4H-pyrimido[4,5-d][1,3]oxazin-2-one]
Treatment day 2, 3.3 mg/kg Compound A, Table 2A, 3.3 mg/kg
  AML clearance (% hCD33 + hCD45+ (of total white cells)): 17.05% and 19.48% and 22.89% and 20.16% and 18.6% and 25.83% and 19.49%
Treatment day 7, 1 mg/kg Compound A, 1 mg/kg
  AML clearance (% hCD33 + hCD45+ (of total white cells)): 12.21% and 7.04% and 6.97% and 8.4% and 10.28%
Treatment day 7, 10 mg/kg Compound A, 10 mg/kg
  AML clearance (% hCD33 + hCD45+ (of total white cells)): 4.04% and 3.35% and 6.37% and 4.2% and 2.73%
Treatment day 15, 3.3 mg/kg Compound A, Table 2A, 3.3 mg/kg
  AML clearance (% hCD33 + hCD45+ (of total white cells)): 35.68% and 39.36% and 39.41% and 22.01% and 44.8% and 40.7% and 29.24%
Treatment day 18, 3.3 mg/kg Compound A, 3.3 mg/kg
  AML clearance (% hCD33 + hCD45+ (of total white cells)): 20.86% and 33.61% and 41.83% and 32.38% and 38.57% and 42.91% and 20.85%
Treatment day 23, 1 mg/kg Compound A, 1 mg/kg
  AML clearance (% hCD33 + hCD45+ (of total white cells)): 16.54% and 9.05% and 15.88% and 9.45%
Treatment day 23, 10 mg/kg Compound A, 10 mg/kg
  AML clearance (% hCD33 + hCD45+ (of total white cells)): 4.97% and 1.6% and 8.52% and 2.88% and 2.41%
Treatment day 28, 3.3 mg/kg Compound A, Table 2A, 3.3 mg/kg
  AML clearance (% hCD33 + hCD45+ (of total white cells)): 32.12% and 43.09% and 32.66% and 35.22% and 35% and 33.35%
Treatment day 34, 3.3 mg/kg Compound A, 3.3 mg/kg
  AML clearance (% hCD33 + hCD45+ (of total white cells)): 27.18% and 34.09% and 34.27% and 48.87% and 20.33% and 33.11% and 34.28%
Treatment day 36, 1 mg/kg Compound A, 1 mg/kg
  AML clearance (% hCD33 + hCD45+ (of total white cells)): 16.96% and 20.94% and 15.66% and 13.65%
Treatment day 36, 10 mg/kg Compound A, 10 mg/kg
  AML clearance (% hCD33 + hCD45+ (of total white cells)): 4.67% and 3.89% and 4.32% and 2.11% and 2.39%
Treatment day 43, 3.3 mg/kg Compound A, Table 2A, 3.3 mg/kg
  AML clearance (% hCD33 + hCD45+ (of total white cells)): 59.89% and 65.62% and 61.99% and 47.87% and 52.96% and 62.25% and 27.91%
Treatment day 47, 3.3 mg/kg Compound A, 3.3 mg/kg
  AML clearance (% hCD33 + hCD45+ (of total white cells)): 64.21% and 29.4% and 31.38% and 63.41% and 45.19% and 20.69% and 37.68%
Treatment day 50, 1 mg/kg Compound A, 1 mg/kg
  AML clearance (% hCD33 + hCD45+ (of total white cells)): 26.13% and 48.71% and 41.07% and 42.54%
Treatment day 50, 10 mg/kg Compound A, 10 mg/kg
  AML clearance (% hCD33 + hCD45+ (of total white cells)): 2.9% and 3.66% and 5.08% and 2.11% and 1.55%
Treatment day 58, 3.3 mg/kg Compound A, Table 2A, 3.3 mg/kg
  AML clearance (% hCD33 + hCD45+ (of total white cells)): 67.45% and 59.45% and 67.73% and 53.95% and 44.7% and 48.88% and 71.52%
Treatment day 61, 3.3 mg/kg Compound A, 3.3 mg/kg
  AML clearance (% hCD33 + hCD45+ (of total white cells)): 68.85% and 72.89% and 47.42% and 56.98% and 82.54% and 38.58% and 74.64%
Treatment day 64, 1 mg/kg Compound A, 1 mg/kg
  AML clearance (% hCD33 + hCD45+ (of total white cells)): 51.67% and 57.72% and 55.61% and 45.53%
Treatment day 64, 10 mg/kg Compound A, 10 mg/kg
  AML clearance (% hCD33 + hCD45+ (of total white cells)): 0.94% and 1.66% and 1.11% and 1.55% and 0.62%
Treatment day 75, 3.3 mg/kg Compound A, 3.3 mg/kg
  AML clearance (% hCD33 + hCD45+ (of total white cells)): 67.91% and 54.26% and 56.55% and 90.69% and 45.05% and 68.73%
Treatment day 77, 3.3 mg/kg Compound A, Table 2A, 3.3 mg/kg
  AML clearance (% hCD33 + hCD45+ (of total white cells)): 74.81% and 79.27% and 43.75% and 60.02% and 75.38% and 59.74%
Treatment day 78, 1 mg/kg Compound A, 1 mg/kg
  AML clearance (% hCD33 + hCD45+ (of total white cells)): 65.17% and 75.95% and 68.32% and 56.56%
Treatment day 78, 10 mg/kg Compound A, 10 mg/kg
  AML clearance (% hCD33 + hCD45+ (of total white cells)): 0.89% and 1.72% and 0.4% and 0.45% and 0.46%
Treatment day 84, 1 mg/kg Compound A, 1 mg/kg
  AML clearance (% hCD33 + hCD45+ (of total white cells)): 98.27% and 84.52%
Treatment day 89, 3.3 mg/kg Compound A, 3.3 mg/kg
  AML clearance (% hCD33 + hCD45+ (of total white cells)): 66.75% and 67.29% and 63.26% and 92.41% and 41.16% and 62.6%
Treatment day 92, 10 mg/kg Compound A, 10 mg/kg
  AML clearance (% hCD33 + hCD45+ (of total white cells)): 0.8% and 2.36% and 0.4% and 0.19% and 0.32%
Treatment day 98, 3.3 mg/kg Compound A, Table 2A, 3.3 mg/kg
  AML clearance (% hCD33 + hCD45+ (of total white cells)): 55.63% and 73.72% and 73.42% and 85.43% and 64.03%
Treatment day −3, 3.3 mg/kg Compound A, 3.3 mg/kg
  AML clearance (% hCD33 + hCD45+ (of total white cells)): 17.5% and 23.88% and 24.18% and 19.46% and 14.94% and 20.14%
Treatment day −8, 1 mg/kg Compound A, 1 mg/kg
  AML clearance (% hCD33 + hCD45+ (of total white cells)): 6.97% and 3.7% and 3.2% and 7.02% and 11.07%
Treatment day −8, 10 mg/kg Compound A, 10 mg/kg
  AML clearance (% hCD33 + hCD45+ (of total white cells)): 2.43% and 7.61% and 4.1% and 6.27% and 6.53%
Treatment day −19, 3.3 mg/kg Compound A, Table 2A, 3.3 mg/kg
  AML clearance (% hCD33 + hCD45+ (of total white cells)): 6.86% and 3.77% and 4.41% and 2.93% and 5.26% and 4.84% and 2.39%
Day 43, group B: Compound A (3.3 mg/kg), azacitidine study, vehicle 71%
  % peripheral blood AML cells (treatment group value): 52%
Day 47, group B: Compound A (3.3 mg/kg), cytarabine study, vehicle 86%
  % peripheral blood AML cells (treatment group value): 39%
Day 50, group B: 1 mg Compound A, vehicle 32%
  % peripheral blood AML cells (treatment group value): 37%
Day 50, group C: 10 mg Compound A, vehicle 32%
  % peripheral blood AML cells (treatment group value): 2.8%
Day 64, group B: 1 mg Compound A, vehicle 67%
  % peripheral blood AML cells (treatment group value): 51%
Day 64, group C: 10 mg Compound A, vehicle 67%
  % peripheral blood AML cells (treatment group value): 1.1%
Day 78, group B: 1 mg Compound A, vehicle 129%
  % peripheral blood AML cells (treatment group value): 65%
Day 78, group C: 10 mg Compound A, vehicle 129%
  % peripheral blood AML cells (treatment group value): 0.66%
